These are literature values, as cited in US10925856B2, “Methods and compositions involving bucindolol for the treatment of atrial fibrillation” (priority 2018, dated 2021).

Read-outs that look alike come from different tables or passages of the source.

The data set deals with patients with HF and/or AF. The note with it: persistent AF recently converted to SR, cited from earlier work.

As for `CC(C)NCC(O)COc1ccc(COCCOC(C)C)cc1` (stereo not shown) [bisoprolol], the AF recurrence rate reads like this: (Katritsis et al) 46%; (Plewan et al) 42%. For the molecule `COc1ccccc1OCCNCC(O)COc1cccc2[nH]c3ccccc3c12` (stereo not shown) [carvedilol], the AF recurrence rate (Katritsis et al) is on record as 32%. `CC(C)NCC(O)c1ccc(NS(C)(=O)=O)cc1` (stereo not shown) [sotalol]: the AF recurrence rate (Plewan et al) is given as 41%.
